Experimental data reported in patent US8952024B2, “Herbicidal pyrimidone derivatives” (E I du Pont de Nemours and Company, priority 2009, dated 2015).

What was measured:
Assay in all cases: Test B pre-/postemergence plant response
Type in all cases: in vivo
soybean (Glycine max) = conditions: for Soybean plant response rating (0 to 100 scale): 62 g ai/ha, 0 is no effect
How it was run: (§1)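 Response scores were assigned visually after 13 to 15 days in a greenhouse, comparing treated pots with controls on a 0–100 scale where 100 denotes complete control. Preemergence treatments went onto freshly seeded loam/sand soil; postemergence treatments onto plants 2 to 18 cm tall.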

[1] = tested on: goosegrass (Eleusine indica); conditions: for Goosegrass plant response rating (0 to 100 scale): 62 g ai/ha, 0 is no effect
How it was run: as §1

[2] = tested on: Surinam grass (Brachiaria decumbens); conditions: for Surinam Grass plant response rating (0 to 100 scale): 62 g ai/ha, 0 is no effect
How it was run: as §1

[3] = tested on: pigweed (Amaranthus retroflexus); conditions: for Pigweed plant response rating (0 to 100 scale): 62 g ai/ha, 0 is no effect
How it was run: as §1

[4] = tested on: lambsquarters (Chenopodium album); conditions: for Lambsquarters plant response rating (0 to 100 scale): 62 g ai/ha, 0 is no effect
How it was run: as §1

wild oat (Avena fatua) = conditions: for Oat, Wild plant response rating (0 to 100 scale): 62 g ai/ha, 0 is no effect
How it was run: as §1

[5] = tested on: ragweed (common ragweed, Ambrosia elatior); conditions: for Ragweed plant response rating (0 to 100 scale): 62 g ai/ha, 0 is no effect
How it was run: as §1

[6] = tested on: large crabgrass (Digitaria sanguinalis); conditions: for Crabgrass, Large plant response rating (0 to 100 scale): 62 g ai/ha, 0 is no effect
How it was run: as §1

kochia (Kochia scoparia) = conditions: for Kochia plant response rating (0 to 100 scale): 62 g ai/ha, 0 is no effect
How it was run: as §1

[7] = tested on: Italian ryegrass (Lolium multiflorum); conditions: for Ryegrass, Italian plant response rating (0 to 100 scale): 62 g ai/ha, 0 is no effect
How it was run: as §1

[8] = tested on: blackgrass (Alopecurus myosuroides); conditions: for Blackgrass plant response rating (0 to 100 scale): 62 g ai/ha, 0 is no effect
How it was run: as §1

[9] = tested on: downy bromegrass (Bromus tectorum); conditions: for Bromegrass, Downy plant response rating (0 to 100 scale): 62 g ai/ha, 0 is no effect
How it was run: as §1

corn (Zea mays) = conditions: for Corn plant response rating (0 to 100 scale): 62 g ai/ha, 0 is no effect
How it was run: as §1

[10] = tested on: johnsongrass (Sorghum halepense); conditions: for Johnsongrass plant response rating (0 to 100 scale): 62 g ai/ha, 0 is no effect
How it was run: as §1

[11] = tested on: woolly cupgrass (Eriochloa villosa); conditions: for Cupgrass, Woolly plant response rating (0 to 100 scale): 62 g ai/ha, 0 is no effect
How it was run: as §1

[12] = tested on: yellow nutsedge (Cyperus esculentus); conditions: for Nutsedge, Yellow plant response rating (0 to 100 scale): 62 g ai/ha, 0 is no effect
How it was run: as §1

[13] = tested on: wheat (Triticum aestivum); conditions: for Wheat plant response rating (0 to 100 scale): 62 g ai/ha, 0 is no effect
How it was run: as §1

[14] = tested on: velvetleaf (Abutilon theophrasti); conditions: for Velvetleaf plant response rating (0 to 100 scale): 62 g ai/ha, 0 is no effect
How it was run: as §1

[15] = postemergence, 100 is complete control, 13 to 15 days
[16] = Postemergence, 31 g ai/ha, 0 to 100 scale (0 no effect, 100 complete control)
[17] = Postemergence, 125 g ai/ha, scale 0 to 100 (0 no effect, 100 complete control)
[18] = Postemergence, 250 g ai/ha, scale 0 to 100 (0 no effect, 100 complete control), 13 to 15 days
[19] = 31 g ai/ha, postemergence, scale 0 to 100, 0 is no effect, 100 is complete control
[20] = Postemergence, 125 g ai/ha, visual rating after 13 to 15 days, scale 0 (no effect) to 100 (complete control)
[21] = Postemergence, 250 g ai/ha, scale 0 to 100 (0 no effect, 100 complete control)

## O=C1CCCC(O)=C1C(=O)c1cnc(-c2ccccc2)n(C2CCCCCC2)c1=O [Compound 130]
Soybean (Glycine max); [15]
  Soybean plant response rating (0 to 100 scale): 98
Soybean (Glycine max); [16]
  Plant response rating, Soybean: 98
Soybean (Glycine max); [17]
  Plant response rating, Soybean: 98
Soybean (Glycine max); [18]
  Plant response rating, Soybean: 100
[1]; [15]
  Goosegrass plant response rating (0 to 100 scale): 85
[1]; [16]
  Plant response rating, Goosegrass: 85
[1]; [17]
  Plant response rating, Goosegrass: 95
[1]; [18]
  Plant response rating, Goosegrass: 95
[2]; [15]
  Surinam Grass plant response rating (0 to 100 scale): 80
[2]; [16]
  Plant response rating, Surinam Grass: 80
[2]; [17]
  Plant response rating, Surinam Grass: 80
[2]; [18]
  Plant response rating, Surinam Grass: 90
[3]; [15]
  Pigweed plant response rating (0 to 100 scale): 98
[3]; [16]
  Plant response rating, Pigweed: 95
[3]; [17]
  Plant response rating, Pigweed: 100
[3]; [18]
  Plant response rating, Pigweed: 100
[4]; [15]
  Lambsquarters plant response rating (0 to 100 scale): 100
[4]; [16]
  Plant response rating, Lambsquarters: 98
[4]; [17]
  Plant response rating, Lambsquarters: 100
[4]; [18]
  Plant response rating, Lambsquarters: 100
Wild oat (Avena fatua); [15]
  Oat, Wild plant response rating (0 to 100 scale): 30
Wild oat (Avena fatua); [16]
  Plant response rating, Oat, Wild: 20
Wild oat (Avena fatua); [17]
  Plant response rating, Oat, Wild: 40
Wild oat (Avena fatua); [18]
  Plant response rating, Oat, Wild: 60
[5]; [15]
  Ragweed plant response rating (0 to 100 scale): 90
[5]; [16]
  Plant response rating, Ragweed: 85
[5]; [17]
  Plant response rating, Ragweed: 98
[5]; [18]
  Plant response rating, Ragweed: 98
[6]; [15]
  Crabgrass, Large plant response rating (0 to 100 scale): 85
[6]; [16]
  Plant response rating, Crabgrass, Large: 85
[6]; [17]
  Plant response rating, Crabgrass, Large: 95
[6]; [18]
  Plant response rating, Crabgrass, Large: 100
Kochia (Kochia scoparia); [15]
  Kochia plant response rating (0 to 100 scale): 85
Kochia (Kochia scoparia); [16]
  Plant response rating, Kochia: 85
Kochia (Kochia scoparia); [17]
  Plant response rating, Kochia: 100
Kochia (Kochia scoparia); [18]
  Plant response rating, Kochia: 100
[7]; [15]
  Ryegrass, Italian plant response rating (0 to 100 scale): 0
[7]; [16]
  Plant response rating, Ryegrass, Italian: 0
[7]; [17]
  Plant response rating, Ryegrass, Italian: 0
[7]; [18]
  Plant response rating, Ryegrass, Italian: 5
[8]; [15]
  Blackgrass plant response rating (0 to 100 scale): 5
[8]; [16]
  Plant response rating, Blackgrass: 0
[8]; [17]
  Plant response rating, Blackgrass: 5
[8]; [18]
  Plant response rating, Blackgrass: 5
[9]; [15]
  Bromegrass, Downy plant response rating (0 to 100 scale): 15
[9]; [16]
  Plant response rating, Bromegrass, Downy: 10
[9]; [17]
  Plant response rating, Bromegrass, Downy: 35
[9]; [18]
  Plant response rating, Bromegrass, Downy: 40
Corn (Zea mays); [15]
  Corn plant response rating (0 to 100 scale): 60
Corn (Zea mays); [16]
  Plant response rating, Corn: 55
Corn (Zea mays); [17]
  Plant response rating, Corn: 80
Corn (Zea mays); [18]
  Plant response rating, Corn: 80
[10]; [15]
  Johnsongrass plant response rating (0 to 100 scale): 60
[10]; [16]
  Plant response rating, Johnsongrass: 60
[10]; [17]
  Plant response rating, Johnsongrass: 80
[10]; [18]
  Plant response rating, Johnsongrass: 80
[11]; [15]
  Cupgrass, Woolly plant response rating (0 to 100 scale): 85
[11]; [16]
  Plant response rating, Cupgrass, Woolly: 80
[11]; [17]
  Plant response rating, Cupgrass, Woolly: 85
[11]; [18]
  Plant response rating, Cupgrass, Woolly: 90
[12]; [15]
  Nutsedge, Yellow plant response rating (0 to 100 scale): 20
[12]; [16]
  Plant response rating, Nutsedge, Yellow: 10
[12]; [17]
  Plant response rating, Nutsedge, Yellow: 35
[12]; [18]
  Plant response rating, Nutsedge, Yellow: 40
[13]; [15]
  Wheat plant response rating (0 to 100 scale): 5
[13]; [16]
  Plant response rating, Wheat: 5
[13]; [17]
  Plant response rating, Wheat: 5
[13]; [18]
  Plant response rating, Wheat: 10
[14]; [15]
  Velvetleaf plant response rating (0 to 100 scale): 95
[14]; [16]
  Plant response rating, Velvetleaf: 95
[14]; [17]
  Plant response rating, Velvetleaf: 98
[14]; [18]
  Plant response rating, Velvetleaf: 100

## O=C1CCCC(O)=C1C(=O)c1cnc(-c2ccc(Br)cc2)n(-c2ccccc2)c1=O [Compound 70]
Soybean (Glycine max); [19]
  Plant response rating, Soybean: 75
Soybean (Glycine max); [15]
  Soybean plant response rating (0 to 100 scale): 75
Soybean (Glycine max); [20]
  Plant response rating, Soybean: 95
Soybean (Glycine max); [21]
  Plant response rating, Soybean: 98
[1]; [19]
  Plant response rating, Goosegrass: 75
[1]; [15]
  Goosegrass plant response rating (0 to 100 scale): 85
[1]; [20]
  Plant response rating, Goosegrass: 85
[1]; [21]
  Plant response rating, Goosegrass: 95
[2]; [19]
  Plant response rating, Surinam Grass: 65
[2]; [15]
  Surinam Grass plant response rating (0 to 100 scale): 65
[2]; [20]
  Plant response rating, Surinam Grass: 95
[2]; [21]
  Plant response rating, Surinam Grass: 100
[3]; [19]
  Plant response rating, Pigweed: 85
[3]; [15]
  Pigweed plant response rating (0 to 100 scale): 98
[3]; [20]
  Plant response rating, Pigweed: 98
[3]; [21]
  Plant response rating, Pigweed: 100
[4]; [19]
  Plant response rating, Lambsquarters: 85
[4]; [15]
  Lambsquarters plant response rating (0 to 100 scale): 98
[4]; [20]
  Plant response rating, Lambsquarters: 100
[4]; [21]
  Plant response rating, Lambsquarters: 100
Wild oat (Avena fatua); [19]
  Plant response rating, Oat, Wild: 55
Wild oat (Avena fatua); [15]
  Oat, Wild plant response rating (0 to 100 scale): 70
Wild oat (Avena fatua); [20]
  Plant response rating, Oat, Wild: 90
Wild oat (Avena fatua); [21]
  Plant response rating, Oat, Wild: 95
[5]; [19]
  Plant response rating, Ragweed: 60
[5]; [15]
  Ragweed plant response rating (0 to 100 scale): 70
[5]; [20]
  Plant response rating, Ragweed: 75
[5]; [21]
  Plant response rating, Ragweed: 80
[6]; [19]
  Plant response rating, Crabgrass, Large: 80
[6]; [15]
  Crabgrass, Large plant response rating (0 to 100 scale): 90
[6]; [20]
  Plant response rating, Crabgrass, Large: 95
[6]; [21]
  Plant response rating, Crabgrass, Large: 100
Kochia (Kochia scoparia); [19]
  Plant response rating, Kochia: 65
Kochia (Kochia scoparia); [15]
  Kochia plant response rating (0 to 100 scale): 65
Kochia (Kochia scoparia); [20]
  Plant response rating, Kochia: 75
Kochia (Kochia scoparia); [21]
  Plant response rating, Kochia: 98
[7]; [19]
  Plant response rating, Ryegrass, Italian: 10
[7]; [15]
  Ryegrass, Italian plant response rating (0 to 100 scale): 10
[7]; [20]
  Plant response rating, Ryegrass, Italian: 50
[7]; [21]
  Plant response rating, Ryegrass, Italian: 70
[8]; [19]
  Plant response rating, Blackgrass: 30
[8]; [15]
  Blackgrass plant response rating (0 to 100 scale): 35
[8]; [20]
  Plant response rating, Blackgrass: 35
[8]; [21]
  Plant response rating, Blackgrass: 50
[9]; [19]
  Plant response rating, Bromegrass, Downy: 10
[9]; [15]
  Bromegrass, Downy plant response rating (0 to 100 scale): 50
[9]; [20]
  Plant response rating, Bromegrass, Downy: 70
[9]; [21]
  Plant response rating, Bromegrass, Downy: 70
Corn (Zea mays); [19]
  Plant response rating, Corn: 15
Corn (Zea mays); [15]
  Corn plant response rating (0 to 100 scale): 35
Corn (Zea mays); [20]
  Plant response rating, Corn: 60
Corn (Zea mays); [21]
  Plant response rating, Corn: 75
[10]; [19]
  Plant response rating, Johnsongrass: 65
[10]; [15]
  Johnsongrass plant response rating (0 to 100 scale): 70
[10]; [20]
  Plant response rating, Johnsongrass: 80
[10]; [21]
  Plant response rating, Johnsongrass: 98
[11]; [19]
  Plant response rating, Cupgrass, Woolly: 45
[11]; [15]
  Cupgrass, Woolly plant response rating (0 to 100 scale): 65
[11]; [20]
  Plant response rating, Cupgrass, Woolly: 90
[11]; [21]
  Plant response rating, Cupgrass, Woolly: 90
[12]; [19]
  Plant response rating, Nutsedge, Yellow: 10
[12]; [15]
  Nutsedge, Yellow plant response rating (0 to 100 scale): 15
[12]; [20]
  Plant response rating, Nutsedge, Yellow: 40
[12]; [21]
  Plant response rating, Nutsedge, Yellow: 60
[13]; [19]
  Plant response rating, Wheat: 5
[13]; [15]
  Wheat plant response rating (0 to 100 scale): 20
[13]; [20]
  Plant response rating, Wheat: 35
[13]; [21]
  Plant response rating, Wheat: 35
[14]; [19]
  Plant response rating, Velvetleaf: 75
[14]; [15]
  Velvetleaf plant response rating (0 to 100 scale): 80
[14]; [20]
  Plant response rating, Velvetleaf: 100
[14]; [21]
  Plant response rating, Velvetleaf: 100
